Several values for one entry are separate records, joined by “and”; a condition that tells them apart may be missing. Equal entries are not always repeated.

Here are results for five molecules from publication PMC11480511 (Scientific Reports, 2024).

The target of test [1] is T1, topoisomerase Iα (Homo sapiens, UniProt P11387).
T1 construct: purchased
T1 sequence (P11387 1-765): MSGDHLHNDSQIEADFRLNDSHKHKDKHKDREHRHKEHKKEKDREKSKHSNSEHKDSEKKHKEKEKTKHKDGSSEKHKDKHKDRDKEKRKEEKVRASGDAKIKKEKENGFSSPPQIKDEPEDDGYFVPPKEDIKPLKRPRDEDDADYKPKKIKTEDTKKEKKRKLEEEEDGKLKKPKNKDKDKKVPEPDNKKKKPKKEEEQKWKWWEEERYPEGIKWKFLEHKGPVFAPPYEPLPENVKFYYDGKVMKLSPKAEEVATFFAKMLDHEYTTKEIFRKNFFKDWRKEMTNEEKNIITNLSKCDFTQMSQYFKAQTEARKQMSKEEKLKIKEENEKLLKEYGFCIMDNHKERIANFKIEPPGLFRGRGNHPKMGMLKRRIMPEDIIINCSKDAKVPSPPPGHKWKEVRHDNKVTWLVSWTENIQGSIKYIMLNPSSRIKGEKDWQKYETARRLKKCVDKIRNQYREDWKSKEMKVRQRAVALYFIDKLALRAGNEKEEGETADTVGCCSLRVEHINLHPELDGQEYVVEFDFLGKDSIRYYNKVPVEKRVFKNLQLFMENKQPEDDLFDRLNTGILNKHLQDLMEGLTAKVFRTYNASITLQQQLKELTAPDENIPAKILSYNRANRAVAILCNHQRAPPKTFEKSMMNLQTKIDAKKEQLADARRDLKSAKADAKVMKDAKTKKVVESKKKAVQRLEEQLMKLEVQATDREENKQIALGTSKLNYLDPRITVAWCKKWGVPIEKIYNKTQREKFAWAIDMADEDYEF
In words: Topoisomerase I inhibition, human DNA topoisomerase Elisa kit. In kind it is biochemical. Particulars: ± SEM. The method, then:
(§1) Two folds of serial dilution was accomplished after standards and the tested compounds were dissolved in sample diluent. Horseradish peroxidase (HRP-avidin) and biotin-conjugated antibody were diluted 10 times each. Each well received 100 µL of each concentration of the standard or test chemicals, which were then added and incubated at 37 °C for 60 min. […] The microtiter plate was rinsed three times and given room to aspirate. After that, the plate was incubated at 37 °C for 60 min with 100 µL of HRP-avidin solution added to each well. After that, the plate was aspirated and cleaned 5 times. Each well received 90 µL of TMB substrate, and the plate was incubated for 30 min. at 37 °C in a light-protected environment. Finally, stop solution (50 µL) was loaded, and within 5 min, the absorbance at 450 nm was measured spectrophotometrically.
(§2) Topoisomerase enzyme assay
(§3) Topoisomerase I and II inhibitory activity […]
(§4) topoisomerase IIβ inhibitory activity utilizing the human DNA topoisomerase Elisa kit.
(§5) Standards and the tested compound were dissolved in sample diluent and 2 folds serial dilution was achieved. Biotin-conjugated antibody and avidin conjugated Horseradish Peroxidase (HRP-avidin) were diluted to 10 folds. 100 μL of each concentration of standard or test compound were added to each well. Incubate at 37 °C for 1 h. The liquid in each well was removed. 10 0 μL of Biotin-conjugated antibody solution was added to each well followed by incubation for 1 h at 37 °C. The microtiter plate was allowed to aspirate and washed 3 times. 100 μL of avidin conjugated Horseradish Peroxidase (HRP -avidin) solution was added to each well and the plate was incubated for 1 h at 37 °C. The plate was aspirated and washed 5 times. 90 μL of TMB substrate were added to each well and the plate was incubated for 30 min at 37 °C and protected from light. 50 μL stop so lution was added. The absorbance was measured spectrophotometrically within 5 min at 450 nm .

Test [2] has as its target T2, topoisomerase IIβ (Homo sapiens, UniProt Q02880).
T2 construct: purchased
Kind of test: Topoisomerase II inhibition, human DNA topoisomerase Elisa kit. Particulars: ± SEM; read-out: Topoisomerase II IC50 µM ± SEM. The format is biochemical. The protocol:
as §1, §2, §3, §4, §5

The test system of test [3] is melanoma LOX IMVI cell line. Kind of test: Cell cycle analysis, propidium iodide flow cytometry. The format is cell-based, human. The protocol:
The effect of compound 3i on cell cycle progression of LOX IMVI cell line was evaluated using Propidium Iodide Flow Cytometry Kit to measure the DNA content according to the reported protocols. The LOX IMVI cells used in this work were obtained from the American Type Culture Collection. Cells were cultured in DMEM (Invitrogen/Life Technologies) supplemented with 10% FBS (Hyclone), 10 µg/ml insulin (Sigma), and 1% penicillin-streptomycin. The remaining chemicals and reagents were all from Sigma or Invitrogen. Growth media was removed, cells washed with warm PBS and aspirated. Adhered cells were detached from media by addition of 5 ml 10% trypsin/EDTA and incubated 2 min in the incubator. The suspended cells harvested, aspirated to a falcon tube, centrifuged at 2000 rpm for 5 min. Cell count performed after suspending the cells into a fresh media and stained with trypan blue, counted and used for preparation of the appropriate number of cells.
(Flow cytometry measures light scatter and fluorescence of single cells or particles in a stream.)

For test [4], the system named is active caspase-3. Kind of test: Western blot of protein expression in LOX IMVI cells. In kind it is cell-based, human. Conditions: control = 1. The protocol: (§6) To evaluate the expression level of the apoptosis modulatory markers Bax, caspase 3 and PARP-1, western blot was performed as formerly described. Three different groups of LOX IMVI cells were permitted to grow to reach 70–80% confluence in […] flasks. The first group of LOX IMVI cells was treated with compound 3i. […] The media was taken out after 48 h, and cells underwent three rounds of ice-cold PBS washing. RIPA lysis buffer [consisting of Tris-HCl pH 7.6 (25 mM), NaCl (150 mM), EDTA (5 mM), NP-40 or Triton X-100 (1%), sodium deoxycholate (1%), SDS1 (1%)] with the proper phosphatase and a protease inhibitor was used to create the whole-cell lysate for 30 min. After centrifuging the mixture at 12,000 rpm for 20 min and sonicating it for five minutes, the supernatant was collected, split into aliquots, and kept at -80 °C. The Biuret method was used to determine protein content[27],[28]. Proteins in each matched cell lysate were denatured in 2 Laemmli buffer containing 5% β--mercaptoethanol at 95 °C for 5 min. For SDS-PAGE electrophoresis, 20 µg of protein per lane were loaded at 100 volts through a 6% stacking gel, then at 125 volts through a 10% resolving gel for around 2 h, and then transferred to a PVDF membrane using a semidry transfer apparatus (made by Cleaver Scientific) for 25 min. The PVDF membrane was first incubated for one hour at 4 °C in TBS buffer containing 0.1% Tween (TBST) and 5% fat-free milk, then overnight at 4 °C with monoclonal anti-Bax, anti-PARP-1, and anti-caspase-3 as primary antibodies (Cell Signalling Technology) at a dilution of 1:500. Membranes were first treated overnight, then three times washed in TBST buffer, then incubated at room temperature for 60 min with the corresponding HRP (horse radish peroxidase)-linked secondary antibodies (Dako). Then the substrate for the chemiluminescent Western ECL (Perkin Elmer, Waltham, MA) was added to the blot as described by the manufacturer by incubating the membranes with equal volumes of ECL solution A and ECL solution B for 1 min.
Background: In western blotting, separated proteins are transferred to a membrane and probed.

In test [5] the test system is PARP-1. The test is described as above. In kind it is cell-based, human. Particulars: control = 1. The protocol:
as §6

Test [6] deals with Bax. The description is as above. The format is cell-based, human. Conditions: control = 1. The method, then: as §6
Where [7] appears, read: LOX IMVI treated at IC50 concentration.

T2 sequence (Q02880 whole entry): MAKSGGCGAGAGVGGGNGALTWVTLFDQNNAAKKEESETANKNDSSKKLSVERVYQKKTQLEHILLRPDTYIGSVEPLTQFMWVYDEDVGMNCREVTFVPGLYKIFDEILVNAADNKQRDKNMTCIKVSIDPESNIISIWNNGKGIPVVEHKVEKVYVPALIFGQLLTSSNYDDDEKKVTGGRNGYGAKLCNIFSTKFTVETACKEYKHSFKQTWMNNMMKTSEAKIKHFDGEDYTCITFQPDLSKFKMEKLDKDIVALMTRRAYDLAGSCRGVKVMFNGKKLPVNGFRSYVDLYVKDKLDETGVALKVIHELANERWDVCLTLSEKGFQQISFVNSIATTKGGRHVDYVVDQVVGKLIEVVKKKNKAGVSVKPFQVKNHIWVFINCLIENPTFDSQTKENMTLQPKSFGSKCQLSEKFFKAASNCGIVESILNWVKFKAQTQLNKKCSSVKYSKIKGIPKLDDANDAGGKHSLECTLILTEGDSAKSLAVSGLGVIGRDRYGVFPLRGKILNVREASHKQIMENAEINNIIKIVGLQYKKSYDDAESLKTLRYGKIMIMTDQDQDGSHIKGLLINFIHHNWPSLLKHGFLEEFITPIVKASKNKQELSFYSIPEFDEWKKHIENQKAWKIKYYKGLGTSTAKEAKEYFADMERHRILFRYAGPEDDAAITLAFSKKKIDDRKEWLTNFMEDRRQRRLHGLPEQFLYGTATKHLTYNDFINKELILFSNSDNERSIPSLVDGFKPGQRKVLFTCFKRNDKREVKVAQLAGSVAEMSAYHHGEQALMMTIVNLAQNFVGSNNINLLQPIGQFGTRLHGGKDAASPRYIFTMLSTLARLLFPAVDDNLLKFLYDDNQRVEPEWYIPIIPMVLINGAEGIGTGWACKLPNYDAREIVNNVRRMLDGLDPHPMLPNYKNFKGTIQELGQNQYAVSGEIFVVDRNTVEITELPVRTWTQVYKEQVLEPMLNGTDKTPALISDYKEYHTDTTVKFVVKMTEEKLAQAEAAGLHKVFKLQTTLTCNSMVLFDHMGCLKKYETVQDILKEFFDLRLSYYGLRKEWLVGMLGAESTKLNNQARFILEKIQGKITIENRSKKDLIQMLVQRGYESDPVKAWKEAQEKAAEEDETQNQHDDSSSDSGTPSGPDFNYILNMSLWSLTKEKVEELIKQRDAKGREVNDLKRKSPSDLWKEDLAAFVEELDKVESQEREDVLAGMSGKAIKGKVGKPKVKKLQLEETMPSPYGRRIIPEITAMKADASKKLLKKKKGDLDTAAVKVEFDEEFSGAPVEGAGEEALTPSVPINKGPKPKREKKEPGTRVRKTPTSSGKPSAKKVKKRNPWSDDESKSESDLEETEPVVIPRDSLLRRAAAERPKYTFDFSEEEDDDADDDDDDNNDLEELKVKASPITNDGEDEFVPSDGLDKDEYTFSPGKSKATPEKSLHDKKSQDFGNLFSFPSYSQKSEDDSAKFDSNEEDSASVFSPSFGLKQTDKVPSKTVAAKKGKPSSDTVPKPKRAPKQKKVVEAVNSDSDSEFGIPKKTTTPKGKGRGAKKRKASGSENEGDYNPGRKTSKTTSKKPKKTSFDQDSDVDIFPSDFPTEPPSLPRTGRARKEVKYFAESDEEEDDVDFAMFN

In the case of `O=C(O)c1cn(C2CC2)c2cc(N3CCN(C(=O)CCCN4C(=O)CSC4=O)CC3)c(F)cc2c1=O` [3 L, 1-Cyclopropyl-7-(4-(4-(2,4-dioxothiazolidin-3-yl)butanoyl)piperazin-1-yl)-6-fluoro-4-oxo-1,4-dihydroquinoline-3-carboxylic acid], the IC50 (commonly the concentration that gives 50% inhibition) in test [1] was found to be 18.8 ± 1.02 µM; in test [2], 14.3 ± 0.78 µM.

As for `O=C(O)c1cn(C2CC2)c2cc(N3CCN(C(=O)CCCN4C(=O)SC(=Cc5ccccc5)C4=O)CC3)c(F)cc2c1=O` [3a, 7-[4-[4-[5-benzylidene-2,4-dioxo-thiazolidin-3-yl]butanoyl]piperazin-1-yl]-1-cyclopropyl-6-fluoro-4-oxo-quinoline-3-carboxylic acid], the 50% inhibitory concentration (IC50) in test [1] is 14.5 ± 0.79 µM; in test [2] it was 35.6 ± 1.94 µM.

For the molecule `O=C(O)c1cn(C2CC2)c2cc(N3CCN(C(=O)CCCN4C(=O)S/C(=C\c5ccc(F)cc5)C4=O)CC3)c(F)cc2c1=O` [3i], the IC50 in test [1] was 4.8 µM and 4.77 µM. In addition, in test [3] (setting [7]), the “%G0-G1 DNA content” value turned out to be 45.53%, the “%G2/M DNA content” value worked out at 9.41%, the “%Pre-G1 DNA content” value is given as 38.51% and the “%S DNA content” value is reported as 45.06%. In addition, the “increase of percentage of cells at pre-G1” value in test [3] (LOX IMVI, versus control) amounted to 20 folds. Further, the “Caspace-3 Optical density (OD)” value in test [4] was 3.14. For the same molecule, in test [5], the “PARP-1 OD” value is on record as 0.87. The “Bax OD” value in test [6] amounted to 4.13. Also, the IC50 in test [2] was found to be 15 ± 0.81 µM.

For the molecule `O=C(O)c1cn(C2CC2)c2cc(N3CCN(C(=O)CCCN4C(=O)SC(=Cc5cccc6ccccc56)C4=O)CC3)c(F)cc2c1=O` [3j, 1-cyclopropyl-6-fluoro-7-[4-[4-[5-(1-naphthylmethylene)-2,4-dioxo-thiazolidin-3-yl]butanoyl]piperazin-1-yl]-4-oxo-quinoline-3-carboxylic acid], the figures for the IC50 in test [1] and in test [2] were 23.5 ± 1.28 µM and 39.8 ± 2.17 µM, respectively.

On to `O=C(O)c1cn(C2CC2)c2cc(N3CCN(C(=O)CCCN4C(=O)S/C(=C\c5ccc([N+](=O)[O-])cc5)C4=O)CC3)c(F)cc2c1=O` [3k], for which the IC50 in test [1] came out at 36.6 ± 1.99 µM; in test [2] it was 18.7 ± 1.02 µM.
